The source of these data is patent publication US6395762B1, “Phenyl amino squarate and thiadiazole dioxide beta-3 adrenergic receptor agonists” (American Home Products Corporation, priority 2000, dated 2002).

The target in data set [1] is T1, human β3-AR (Homo sapiens, UniProt P13945).
T1 construct: Full-length β3-AR clones (402 amino acids) containing the last 6 amino acids of hβ3-AR; expressed in transfected cells; host or cells: CHO (Chinese hamster ovary) cells
The data set is described as follows: cAMP accumulation (SPA) in CHO cells transfected with human β3-AR. It counts as cell-based. The following applies: CHO cells transfected with human β3-AR; for EC50: cAMP by SPA, 30 min at 37° C., 10^−9 M to 10^−5 M, read-out: EC50(β3); for IA(β3): maximal response of compound relative to maximal response of isoproterenol at 10^−5 M. How it is done: The ability of the compounds of this invention to treat or inhibit disorders related to insulin resistance or hyperglycemia was confirmed with representative compounds of this invention in the following standard pharmacological test procedures, which measured the binding selectivity of the β1-, β2-, and β3-AR. Binding to the receptors was measured in Chinese Hamster ovary (CHO) cells that were transfected with β1-, β2-, and β3-AR's. The following briefly summarizes the procedures used and results obtained.
Cloning of Human β3-AR Genomic DNA: cDNA was constructed by ligating four polymerase chain reaction (PCR) products using the following primers: an ATG-Narl fragment, sense primer 5′-[…]3′ and anti-sense primer 5′[…]3′; a Narl-Accl fragment, 5′[…]3′ as sense and 5′[…]3′ as anti-sense primer; an Accli—Styl fragment, sense primer 5′[…]3′ and anti-sense primer 5′[…]3′ and a Styl-TAG fragment, with sense primer 5′ […]3′ and anti-sense primer 5′ […]3′ . The corresponding primer sequences are described in Mantzoros, C. S., et.al., Diabetes, 1996, 45, 909-914. The four fragments are ligated into a pUC 18 plasmid (Gibco-BRL) and sequenced. Full-length β3-AR clones (402 amino acids) containing the last 6 amino acids of hβ3-AR are prepared with the β3-βARpcDNA3 from ATTC.
Binding Procedure: Clones expressing receptor levels of 70 to 110 fmoles/mg protein were used in the test procedures. CHO cells were grown in 24-well tissue culture plates in Dulbecco's Modified Eagle Media with 10% fetal bovine serum, MEM non-essential amino acids, Penicillin—Streptomycin and Geneticin. On the day of test procedure, growth medium was replaced with preincubation media (Dulbecco's Modified Eagle Media) and incubated for 30 minutes at 37° C. Pre-incubation medium was replaced with 0.2 ml treatment medium containing DMEM media containing 250 μM IBMX (isobutyl-1-methylxantine) plus 1 mM ascorbic acid with test compound dissolved in DMSO. Test compounds were assayed over a concentration range of 10^−9 M to 10^−5 M for β3-AR transfected cells and 10^−8 to 10^−4 M for β1-AR and β2-AR transfected cells. Isoproterenol (10^−5 M) was used as an internal standard for comparison of activity. Cells were incubated at 37° C. on a rocker for 30 min with the β3-AR transfected cells and 15 min with β1-AR and β2-AR transfected cells. Incubation was stopped by the addition of 0.2N HCl and the acid was neutralized with 2.5N NaOH. The plates, containing the cells and neutralized media, were stored at −20° C. until ready to test for cAMP using the SPA test kit (Amersham).
Data Analysis and Results: Data collected from the SPA test procedure were analyzed as percent of the maximal isoproterenol response at 10^−5 M. Activity curves were plotted using the SAS statistical and graphics software.

Where a name gives a salt, the structure may show the parent alone.

T1 sequence (P13945 whole entry): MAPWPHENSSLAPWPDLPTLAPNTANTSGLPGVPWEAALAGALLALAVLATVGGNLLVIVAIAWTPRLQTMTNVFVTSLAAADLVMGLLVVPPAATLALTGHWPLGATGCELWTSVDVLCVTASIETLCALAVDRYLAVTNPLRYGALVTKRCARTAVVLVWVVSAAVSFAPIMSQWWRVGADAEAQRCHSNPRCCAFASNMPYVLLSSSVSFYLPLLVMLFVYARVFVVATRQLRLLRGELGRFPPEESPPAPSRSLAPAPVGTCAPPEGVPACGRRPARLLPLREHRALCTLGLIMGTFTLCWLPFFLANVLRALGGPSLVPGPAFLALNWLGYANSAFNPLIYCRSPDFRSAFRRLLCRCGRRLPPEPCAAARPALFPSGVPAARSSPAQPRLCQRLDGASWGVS

Turning to `CCCCCCCCNc1c(Nc2ccc(CC(C)NC[C@H](O)c3cccc(Cl)c3)cc2)c(=O)c1=O` (stereo partly drawn) [Compound 10, 3-(4-{2-[(2R)-2-(3-Chloro-phenyl)-2-hydroxy-ethylamino]-propyl}-phenylamino)-4-octylamino-cyclobut-3-ene-1 2-dione], the melting point fell in the range of 173 to 175 °C. In data set [1], the EC50 came to 87 nM and the “IA(β3)” value is recorded as 0.71.
`CCCCCCCCCCNc1c(Nc2ccc(CC(C)NC[C@H](O)COc3ccc(O)cc3)cc2)c(=O)c1=O` (stereo partly drawn) [Compound 15] displayed a melting point of 130 to 132 °C. In addition, in data set [1], the EC50 was found to be 86 nM and the “IA(β3)” value came to 0.97.
In the same order, the values of `CCCCCCCCNC1=NS(=O)(=O)N=C1Nc1ccc(CC(C)NC[C@H](O)c2ccc(O)c(NS(C)(=O)=O)c2)cc1` (stereo partly drawn) [Compound 6] are 120 °C (dec.), 2 nM and 1.26.
`CCCCCCCCCCNc1c(Nc2ccc(CCCNC[C@H](O)COc3cccc4[nH]c5ccccc5c34)cc2)c(=O)c1=O` [Compound 17, 3-(4-{[(2S)-3-(9H-Carbazol-4-yloxy)-2-hydroxy-propylamino]-propyl}-phenylamino)-4-decylamino-cyclobut-3-ene-1,2-dione] returned a melting point of 225 °C. In addition, the “IA(β3)” value in data set [1] is recorded as 0.31.
As for `CC(Cc1ccc(NC2=NS(=O)(=O)N=C2NCCc2ccc(F)cc2)cc1)NC[C@H](O)COc1ccc(O)cc1` (stereo partly drawn) [Compound 37], the melting point lay within 126 to 131 °C. For the same molecule, in data set [1], the EC50 came out at 6 nM and the “IA(β3)” value came to 0.87.
In the case of `CCCCCCCCCCNC1=NS(=O)(=O)N=C1Nc1ccc(CC(C)NC[C@H](O)COc2ccc(O)cc2)cc1` (stereo partly drawn) (as salt: HCl) [Compound 25, 4-((2S)-3-{2-[4-(4-Decylamino-1,1-dioxo-1H-1(lambda(6))-[1,2,5]thiadiazol-3-ylamino)-phenyl]-1-methyl-ethylamino}-2-hydroxy-propoxy)-phenol], the melting point was in the range of 146 to 155 °C.
Take `CCCCCCNC1=NS(=O)(=O)N=C1Nc1cccc(CC(C)NC[C@H](O)c2cccc(Cl)c2)c1` (stereo partly drawn) [Compound 9, (1R)-1-(3-Chloro-phenyl)-2-{2-[3-(4-hexylamino-1,1-dioxo-1H-1-.lambda(6) .-[1,2,5]thiadiazol-3-ylamino)-phenyl]-1-methyl-ethylamino}-ethanol]: the melting point fell in the range of 90 to 96 °C. In data set [1], the EC50 was found to be 204 nM and the “IA(β3)” value is on record as 0.74.
In the same order, the values of `CCCCCCCCNc1c(Nc2ccc(CC(C)NC[C@H](O)COc3cccc4[nH]c5ccccc5c34)cc2)c(=O)c1=O` (stereo partly drawn) [Compound 16, 3-(4-{2-[(2S)-3-(9H-Carbazol-4-yloxy)-2-hydroxy-propylamino]-propyl}-phenylamino)-4-octylamino-cyclobut-3-ene-1,2-dione] are 125 to 131 °C, 233 nM and 0.47.
Consider `CCCCCCCCCCNC1=NS(=O)(=O)N=C1Nc1ccc(CC(C)NC[C@H](O)c2ccc(O)c(NS(C)(=O)=O)c2)cc1` (stereo partly drawn) [Compound 27, N-[5-((1R)-2-{2-[4-(4-Decylamino-1,1-dioxo-1H-1(lambda(6))-[1 2,5]thiadiazol-3-ylamino)-phenyl]-1-methyl-ethylamino}-1-hydroxy-ethyl)-2-hydroxy-phenyl]-methanesulfonamide], for which the melting point was 120 °C (dec.). For the same molecule, in data set [1], the EC50 turned out to be 9 nM and the “IA(β3)” value is given as 1.27.
As for `CC(Cc1ccc(NC2=NS(=O)(=O)N=C2NCC2(c3ccccc3)CCCC2)cc1)NC[C@H](O)COc1ccc(O)cc1` (stereo partly drawn) (as salt: HCl) [Compound 31, 4-{(2S)-3-[2-(4-{1,1-Dioxo-4-[(1-phenyl-cyclopentylmethyl)-amino]-1H-1(lambda(6))-[1,2,5]thiadiazol-3-ylamino}-phenyl)-1-methyl-ethylamino]-2-hydroxy-propoxy}-phenol], the melting point lay within 162 to 165 °C.
The molecule `CCCCCCCCNC1=NS(=O)(=O)N=C1Nc1ccc(CC(C)NC[C@H](O)COc2ccc(O)cc2)cc1` (stereo partly drawn) [Compound 12, 4-((2S)-2-Hydroxy-3-{1-methyl-2-[4-(4-octylamino-1,1-dioxo-1H-1-.lambda(6).-[1,2,5]thiadiazol-3-ylamino)-phenyl]-1-ethylamino}-propoxy)-phenol] came in with a melting point of 203.5 to 206 °C. For the same molecule, in data set [1], the EC50 was found to be 11 nM and the “IA(β3)” value was determined as 1.45.
Consider `CCCCCCCCNC1=NS(=O)(=O)N=C1Nc1ccc(CC(C)NC[C@H](O)COc2ccc3c(c2)OCO3)cc1` (stereo partly drawn) [Compound 35, (2S)-1-(1,3-Benzodioxol-5-yloxy)-3-{1-methyl-2-[4-(4-octylamino-1,1-dioxo-1H-1.lambda(6).-[1,2,5]thiadiazol-3-ylamino)-phenyl]-ethylamino}-propan-2-ol], for which the melting point lay in the range of 81 to 86 °C. In data set [1], the EC50 amounted to 125 nM and the “IA(β3)” value was found to be 0.51.
As for `CCCCCCCCNC1=NS(=O)(=O)N=C1Nc1ccc(CC(C)NC[C@H](O)COc2ccccc2)cc1` (stereo partly drawn) [Compound 22, (2S)-1-{[1-methyl-2-(4-{[4-(octylamino)-1,1-dioxido-1,2,5-thiadiazol-3-yl]amino}phenyl)ethyl]amino}-3-phenoxypropan-2-ol], the melting point lay within 77 to 82 °C. Besides, the “IA(β3)” value in data set [1] was determined as 0.39.
`CCCCCCNC(=O)Nc1ccc(C2(CNC3=NS(=O)(=O)N=C3Nc3ccc(CC(C)(C)NC[C@H](O)COc4ccc(O)cc4)cc3)CCCC2)cc1` [Compound 8, 1-Hexyl-3-[4-(1-{[4-(4-{2-[(2S)-2-hydroxy-3-(4-hydroxy-phenoxy)-propylamino]-2-methyl-propyl}-phenylamino)-1,1-dioxo-1H-1.lambda(6).-{1,2,5]thiadiazol-3-ylamino]-methyl}-cyclopentyl)-phenyl]-urea] yielded a melting point of 154.5 to 158.5 °C. Besides, in data set [1], the EC50 worked out at 10 nM and the “IA(β3)” value was found to be 0.91.
In turn, `CCCCCCCCCCNc1c(Nc2ccc(CC(C)NC[C@H](O)COc3ccccc3)cc2)c(=O)c1=O` (stereo partly drawn) [Compound 23] showed a melting point of 144 to 155 °C. In addition, in data set [1], the EC50 is 1360 nM and the “IA(β3)” value was 0.64.
Molecule `CCCCCCCCNC1=NS(=O)(=O)N=C1Nc1cccc(CC(C)NCC(O)c2cccc(Cl)c2)c1` [Compound 2, (1R)-1-(3-Chloro-phenyl)-2-{1-methyl-2-[3-(4-octylamino-1,1-dioxo-1H-1-.lambda(6).-[1,2,5]thiadiazol-3-ylamino)-phenyl-]-ethylamino}-ethanol] showed a melting point of 90 to 96 °C. Also, in data set [1], the EC50 was found to be 198 nM and the “IA(β3)” value was 0.42.
Take `CC(Cc1ccc(NC2=NS(=O)(=O)N=C2NCC2(c3ccccc3)CCCC2)cc1)NC[C@H](O)COc1ccc(O)cc1` (stereo partly drawn) [Compound 31, 4-{(2S)-3-[2-(4-{1,1-Dioxo-4-[(1-phenyl-cyclopentylmethyl)-amino]-1H-1(lambda(6))-[1,2,5]thiadiazol-3-ylamino}-phenyl)-1-methyl-ethylamino]-2-hydroxy-propoxy}-phenol]: in data set [1], the EC50 came out at 5 nM and the “IA(β3)” value amounted to 1.0.
`CCCCCCCCNC1=NS(=O)(=O)N=C1Nc1ccc(CC(C)(C)NC[C@H](O)COc2ccc(O)cc2)cc1` (as salt: HCl) [Compound 4] came in with a melting point of 229.5 to 231.3 °C.
